“And” between values parts separate entries of the source, which are not always exact repeats. Equal entries are not always repeated.
The compounds below were run on RBCs (assay: Inhibition of complement-induced hemolysis in sensitized sheep erythrocytes at 253 ug/ml). Conditions: Ovis aries, Erythrocyte.
Type: functional

| SMILES | inhibition at 253 µg/mL [%] |
| --- | --- |
| CC(=O)c1cc2c(cc1O)C[C@@]1(O2)[C@@H](C)CC[C@@H](O)C1(C)C | 17 |

These compounds were tested on RBCs (assay: Inhibition of complement-induced hemolysis in sensitized sheep erythrocytes). Conditions: Ovis aries, Erythrocyte.
Type: functional, cell-based

| SMILES | IC50 |
| --- | --- |
| C[C@H]1CC[C@@H](O)C(C)(C)[C@@]12Cc1cc(O)ccc1O2 | 455 µM and 260 µg/mL |
| COc1cc(C(=O)[O-])c(C=O)c2c1CC1(CCCCC1)O2.[Na+] | 160 µM and 44 µg/mL |
| C[C@H]1CC[C@@H](O)C(C)(C)[C@@]12Cc1cc(C(=O)[O-])ccc1O2.[Na+] | 2 mM and 580 µg/mL |
| CC(=O)c1c(O)ccc2c1C[C@@]1(O2)[C@@H](C)CC[C@@H](O)C1(C)C | 1.07 mM and 320 µg/mL |
| COc1ccc(C(=O)[O-])c2c1CC1(CCCCC1)O2.[Na+] | 1.3 mM and 341 µg/mL |
| C[C@H]1CC[C@@H](O)C(C)(C)[C@@]12Cc1cc(C(=O)[O-])cc(C#N)c1O2.[Na+] | 1.32 mM and 415 µg/mL |
| C[C@@H]1CCC2C(C)(C)[C@H](O)[C@H](O)C[C@]2(C)[C@@]12Cc1c(O)cc(C(=O)[O-])c(C=O)c1O2.[Na+] (stereo partly specified) | 570 µM and 238 µg/mL |
| C[C@H]1CC[C@@H](O)C(C)(C)[C@@]12Cc1cc(C(=O)[O-])cc(Br)c1O2.[Na+] | 950 µM and 350 µg/mL |
| COc1cc(C(=O)[O-])cc2c1CC1(CCCCC1)O2.[Na+] | 820 µM and 214 µg/mL |
| C[C@]1(O)CC[C@@H]([C@]2(C)Cc3c(O)ccc(C(=O)[O-])c3O2)C[C@H]1O.[Na+] | 1.6 mM and 515 µg/mL |

From ChEMBL document CHEMBL1149522, “Synthesis of 3H-spiro[benzofuran-2,1'-cyclohexane] derivatives from naturally occurring filifolinol and their classical complement pathway inhibitory activity” (Bioorg Med Chem Lett, 2006)
